# Target: T1, human CCR10 (Homo sapiens, UniProt P46092)
# T1 construct: expressed in transfected cells; host or cells: KJMGER8 cell (cell line derived from Namalwa cell); expression induced with 10 nmol/L β-estradiol
# T1 sequence (P46092 1-362): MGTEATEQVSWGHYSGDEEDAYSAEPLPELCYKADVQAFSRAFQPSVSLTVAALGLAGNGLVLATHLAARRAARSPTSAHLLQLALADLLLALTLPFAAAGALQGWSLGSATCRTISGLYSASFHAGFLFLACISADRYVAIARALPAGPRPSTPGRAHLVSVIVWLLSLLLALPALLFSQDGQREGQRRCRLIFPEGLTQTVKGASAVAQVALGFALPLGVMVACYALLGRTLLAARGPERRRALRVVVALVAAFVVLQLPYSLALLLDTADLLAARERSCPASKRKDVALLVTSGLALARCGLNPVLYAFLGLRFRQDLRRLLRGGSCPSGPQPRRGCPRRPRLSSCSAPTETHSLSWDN
# Assay: Calcium assay of human CCR10 (inhibition of CTACK-induced increase in intracellular calcium ion concentration in hCCR10G16 cells)
# Assay type: cell-based
# Conditions: test compound 100 nmol/L, human recombinant CTACK, hCCR10G16 cells (KJMGER8/Namalwa-derived, Gα16 co-expressed), FLIPR or FDSS; for inhibition at 0.1 µM: read-out: Inhibitory rate (%) for an increase in calcium ion concentration
# In short: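 KJMGER8-derived hCCR10G16 cells (human CCR10 plus Gα16, expression induced 24 h with 10 nmol/L β-estradiol) were dye-loaded and preincubated with compound for 30 min at 37 °C, then stimulated with CTACK (300 nmol/L stock). Calcium flux over ~5 min (max−min fluorescence) gave percent inhibition versus DMSO control.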
inhibition at 0.1 µM [%],SMILES,Inhibitory rate (%) for an increase in calcium ion concentration [%]
> 100,"CCC(=O)NS(=O)(=O)c1cnn2c(Nc3cc(C)ccc3F)c(C(=O)N3CCC4(CC3)OCc3ccccc34)cnc12 [a-51, N-{7-(2-Fluoro-5-methylphenylamino)-6-[3H-spiro(isobenzofuran-1,4′-piperidine)-1′-carbonyl]pyrazolo[1,5-a]pyrimidin-3-ylsulfonyl}propionamide]",
,Cc1ccc(F)c(Nc2c(C(=O)N3CCC4(CC3)OCc3ccccc34)cnc3c(S(=O)(=O)NC(=O)C4CC4)cnn23)c1 [a-52],>100
> 100,"CCC(=O)NS(=O)(=O)c1cnn2c(Nc3cc(Cl)ccc3Cl)c(C(=O)N3CCC4(CC3)OCc3ccccc34)cnc12 [a-53, N-{7-(2,5-Dichlorophenylamino)-6-[3H-spiro(isobenzofuran-1,4′-piperidine)-1′-carbonyl]pyrazolo[1,5-a]pyrimidin-3-ylsulfonyl}propionamide]",
> 100,"O=C(NS(=O)(=O)c1cnn2c(Nc3cc(Cl)ccc3Cl)c(C(=O)N3CCC4(CC3)OCc3ccccc34)cnc12)C1CC1 [a-54, N-{7-(2,5-Dichlorophenylamino)-6-[3H-spiro(isobenzofuran-1,4′-piperidine)-1′-carbonyl]pyrazolo[1,5-a]pyrimidin-3-ylsulfonyl}cyclopropanecarboxamide]",
> 100,"CC(=O)NS(=O)(=O)c1cnn2c(Nc3cc(C)ccc3Cl)c(C(=O)N3CCC4(CC3)OCc3ccccc34)cnc12 [a-55, N-{7-(2-Chloro-5-methylphenylamino)-6-[3H-spiro(isobenzofuran-1,4′-piperidine)-1′-carbonyl]pyrazolo[1,5-a]pyrimidin-3-ylsulfonyl}acetamide]",
> 100,"CCC(=O)NS(=O)(=O)c1cnn2c(Nc3cc(C)ccc3Cl)c(C(=O)N3CCC4(CC3)OCc3ccccc34)cnc12 [a-56, N-{7-(2-Chloro-5-methylphenylamino)-6-[3H-spiro(isobenzofuran-1,4′-piperidine)-1′-carbonyl]pyrazolo[1,5-a]pyrimidin-3-ylsulfonyl}propionamide]",
> 100,"Cc1ccc(Cl)c(Nc2c(C(=O)N3CCC4(CC3)OCc3ccccc34)cnc3c(S(=O)(=O)NC(=O)C4CCC4)cnn23)c1 [a-57, N-{7-(2-Chloro-5-methylphenylamino)-6-[3H-spiro(isobenzofuran-1,4′-piperidine)-1′-carbonyl]pyrazolo[1,5-a]pyrimidin-3-ylsulfonyl}cyclobutanecarboxamide]",
> 100,"Cc1ccc(Cl)c(Nc2c(C(=O)N3CCC4(CC3)OCc3ccccc34)cnc3c(S(=O)(=O)NC(=O)C4(C)COC4)cnn23)c1 [a-58, N-{7-(2-Chloro-5-methylphenylamino)-6-[3H-spiro(isobenzofuran-1,4′-piperidine)-1′-carbonyl]pyrazolo[1,5-a]pyrimidin-3-ylsulfonyl}-3-methyloxetane-3-carboxamide]",
90.2,"CCC(=O)NS(=O)(=O)c1cnn2c(Nc3cc(C)ccc3Cl)c(C(=O)N3CC4(C3)CN(c3ccc(F)cc3)C4)cnc12 [a-60, N-{7-(2-Chloro-5-methylphenylamino)-6-[6-(4-fluorophenyl)-2,6-diazaspiro[3,3]heptane-2-carbonyl]pyrazolo[1,5-a]pyrimidin-3-ylsulfonyl}propionamide]",
24.3,"CCNC(=O)NS(=O)(=O)c1cnn2c(Nc3cc(C)ccc3Cl)c(C(=O)N3CC4(C3)CN(c3ccc(F)cc3)C4)cnc12 [a-61, 7-(2-Chloro-5-methylphenylamino)-N-(ethylcarbamoyl)-6-[6-(4-fluorophenyl)-2,6-diazaspiro[3,3]heptane-2-carbonyl]pyrazolo[1,5-a]pyrimidine-3-sulfonamide]",
> 100,"CCN(CC)S(=O)(=O)c1cnn2c(Nc3ccc(F)cc3C)c(C(=O)N3CCC(c4ccccc4)CC3)cnc12 [a-62, N,N-Diethyl-7-(4-fluoro-2-methylphenylamino)-6-(4-phenylpiperidine-1-carbonyl)pyrazolo[1,5-a]pyrimidine-3-sulfonamide]",
58.8,"CNCC(=O)NS(=O)(=O)c1cnn2c(Nc3ccc(F)cc3C)c(C(=O)N3CCC(c4ccccc4)CC3)cnc12 [a-63, N-[7-(4-Fluoro-2-methylphenylamino)-6-(4-phenylpiperidine-1-carbonyl)pyrazolo[1,5-a]pyrimidin-3-ylsulfonyl]-2-methylaminoacetamide]",
94.2,"COCC(=O)NS(=O)(=O)c1cnn2c(Nc3ccc(F)cc3C)c(C(=O)N3CCC(c4ccccc4)CC3)cnc12 [a-64, N-[7-(4-Fluoro-2-methylphenylamino)-6-(4-phenylpiperidine-1-carbonyl)pyrazolo[1,5-a]pyrimidin-3-ylsulfonyl]-2-methoxyacetamide]",
> 100,"Cc1cc(F)ccc1Nc1c(C(=O)N2CCC(c3ccccc3)CC2)cnc2c(S(=O)(=O)NC(=O)CO)cnn12 [a-65, N-[7-(4-Fluoro-2-methylphenylamino)-6-(4-phenylpiperidine-1-carbonyl)pyrazolo[1,5-a]pyrimidin-3-ylsulfonyl]-2-hydroxyacetamide]",
63.7,"Cc1cc(F)ccc1Nc1c(C(=O)N2CCC(c3ccccc3)CC2)cnc2c(S(=O)(=O)NC(=O)Nc3ccccc3)cnn12 [a-67, 7-(4-Fluoro-2-methylphenylamino)-N-phenylcarbamoyl-6-(4-phenylpiperidine-1-carbonyl)pyrazolo[1,5-a]pyrimidine-3-sulfonamide]",
85.9,"Cc1cc(F)ccc1Nc1c(C(=O)N2CCC(c3ccccc3)CC2)cnc2c(S(=O)(=O)NC(=O)N3CCOCC3)cnn12 [a-68, N-[7-(4-Fluoro-2-methylphenylamino)-6-(4-phenylpiperidine-1-carbonyl)pyrazolo[1,5-a]pyrimidin-3-ylsulfonyl]morpholine-4-carboxamide]",
81.8,"CCNC(=S)NS(=O)(=O)c1cnn2c(Nc3ccc(F)cc3C)c(C(=O)N3CCC(c4ccccc4)CC3)cnc12 [a-69, N-Ethylcarbamothioyl-7-(4-fluoro-2-methylphenylamino)-6-(4-phenylpiperidine-1-carbonyl)pyrazolo[1,5-a]pyrimidine-3-sulfonamide]",
> 100,"Cc1cc(F)ccc1Nc1c(C(=O)N2CCC(c3ccccc3)CC2)cnc2c(S(=O)(=O)NC(=O)C(F)(F)F)cnn12 [a-70, 2,2,2-Trifluoro-N-[7-(4-fluoro-2-methylphenylamino)-6-(4-phenylpiperidine-1-carbonyl)pyrazolo[1,5-a]pyrimidin-3-ylsulfonyl]acetamide]",
88.8,"Cc1cc(F)ccc1Nc1c(C(=O)N2CCC(c3ccccc3)CC2)cnc2c(S(=O)(=O)NS(C)(=O)=O)cnn12 [a-71, 7-(4-Fluoro-2-methylphenylamino)-N-methylsulfonyl-6-(4-phenylpiperidine-1-carbonyl)pyrazolo[1,5-a]pyrimidine-3-sulfonamide]",
90.7,"COC(=O)NS(=O)(=O)c1cnn2c(Nc3ccc(F)cc3C)c(C(=O)N3CCC(c4ccccc4)CC3)cnc12 [a-72, Methyl 7-(4-fluoro-2-methylphenylamino)-6-(4-phenylpiperidine-1-carbonyl)pyrazolo[1,5-a]pyrimidin-3-ylsulfonylcarbamate]",
,"Cc1cc(F)ccc1Nc1c(C(=O)N2CCC(c3ccccc3)CC2)cnc2c(S(=O)(=O)N=CN(C)C)cnn12 [a-73, N-[7-(4-Fluoro-2-methylphenylamino)-6-(4-phenylpiperidine-1-carbonyl)pyrazolo[1,5-a]pyrimidin-3-ylsulfonyl]-N,N-dimethylformimidamide]",68.9
> 100,"COC(=O)NS(=O)(=O)c1cnn2c(Nc3cc(C)ccc3C)c(C(=O)N3CCC(c4ccccc4)CC3)cnc12 [a-74, Methyl 7-(2,5-dimethylphenylamino)-6-(4-phenylpiperidine-1-carbonyl)pyrazolo[1,5-a]pyrimidin-3-ylsulfonylcarbamate]",
89.4,"O=C(NS(=O)(=O)c1cnn2c(NCc3ccccc3)c(C(=O)N3CCC(c4ccccc4)CC3)cnc12)C1CC1 [a-75, N-[7-Benzylamino-6-(4-phenylpiperidine-1-carbonyl)pyrazolo[1,5-a]pyrimidin-3-ylsulfonyl]cyclopropanecarboxamide]",
95.1,"CCNC(=O)NS(=O)(=O)c1cnn2c(NCc3ccccc3)c(C(=O)N3CCC(c4ccccc4)CC3)cnc12 [a-76, 7-Benzylamino-N-ethylcarbamoyl-6-(4-phenylpiperidine-1-carbonyl)pyrazolo[1,5-a]pyrimidine-3-sulfonamide]",
> 100,"Cc1ccc(Cl)c(Nc2c(C(=O)N3CCC(c4ccc(F)cc4)CC3)cnc3c(S(=O)(=O)NC(N)=O)cnn23)c1 [a-77, N-Carbamoyl-7-(2-chloro-5-methylphenylamino)-6-[4-(4-fluorophenyl)piperidine-1-carbonyl]pyrazolo[1,5-a]pyrimidine-3-sulfonamide]",
> 100,"O=C(c1cnc2c(S(=O)(=O)Nc3nncs3)cnn2c1Nc1cc(Cl)ccc1Cl)N1CCC(c2ccc(F)cc2)CC1 [a-78, 7-(2,5-Dichlorophenylamino)-6-[4-(4-fluorophenyl)piperidine-1-carbonyl]-N-(1,3,4-thiadiazol-2-yl)pyrazolo[1,5-a]pyrimidine-3-sulfonamide]",

# From US20140221340A1 (KYOWA HAKKO KIRIN CO., LTD., priority 2011, published 2014)
